What is called IC50 is the midpoint of a concentration-inhibition curve.

The assay concerns the target T1, recombinant CETP (rCETP) (Homo sapiens, UniProt P11597).
T1 sequence (P11597 18-493): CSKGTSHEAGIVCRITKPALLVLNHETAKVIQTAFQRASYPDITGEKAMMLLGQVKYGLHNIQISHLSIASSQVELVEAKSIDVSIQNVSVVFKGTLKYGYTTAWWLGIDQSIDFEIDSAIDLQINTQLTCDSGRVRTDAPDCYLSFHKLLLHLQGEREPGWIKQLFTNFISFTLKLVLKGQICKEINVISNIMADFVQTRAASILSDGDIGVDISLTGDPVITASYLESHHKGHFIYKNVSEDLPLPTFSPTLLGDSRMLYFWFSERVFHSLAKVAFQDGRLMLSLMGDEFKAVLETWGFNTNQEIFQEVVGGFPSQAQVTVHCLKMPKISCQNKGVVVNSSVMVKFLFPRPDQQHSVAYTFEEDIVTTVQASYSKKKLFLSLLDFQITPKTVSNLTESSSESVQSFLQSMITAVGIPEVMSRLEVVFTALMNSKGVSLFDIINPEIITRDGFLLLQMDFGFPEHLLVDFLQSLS
Put plainly: RTA assay using recombinant CETP (2% RTA). Format: biochemical. As to conditions: RTA assay in 2% human serum; read-out: IC50. The method in brief: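 Compounds preincubated 1 h at 37 °C with assay cocktail (CETP buffer: 50 mM Tris pH 7.4, 100 mM NaCl, 1 mM EDTA; human HDL acceptor); transfer started with [3H]cholesteryl oleate- or [3H]triolein-labelled LDL, 60 min at 37 °C. LDL PEG-precipitated; supernatant counted by scintillation, blank-corrected; IC50 from 4-parameter sigmoidal fit of % inhibition vs DMSO control.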
With `COc1cc(F)c(-c2cnc(C(=O)O)cc2C)cc1-c1cnc(N2CC(F)(F)C2)nc1CN1C(=O)O[C@H](c2cc(C(F)(F)F)cc(C(F)(F)F)c2)[C@@H]1C` [Example 183], the IC50 stood at 14 nM.

With `COC(=O)CCc1ccc(OC2CC2)c(-c2c(C)cc(N3CCC3)nc2CN2C(=O)O[C@H](c3cc(C(F)(F)F)cc(C(F)(F)F)c3)[C@@H]2C)c1` [Example 215], the half-inhibitory concentration (IC50) was 6 nM.

As for `COC(=O)c1sc(-c2ccc(OC)c(-c3ccc(N4CCC4)nc3CN3C(=O)O[C@H](c4cc(C(F)(F)F)cc(C(F)(F)F)c4)[C@@H]3C)c2)c(C)c1C` [Example 52], the IC50 stood at 15 nM.

`COc1cc(F)c(-c2ccc(C(=O)O)cc2C)cc1-c1ccc(N2CC(F)(F)C2)nc1CN1C(=O)O[C@H](c2cccc(OC(F)(F)F)c2)[C@@H]1C` [Example 296]: the IC50 is 8 nM.

Regarding `C[C@H]1[C@@H](c2cc(C(F)(F)F)cc(C(F)(F)F)c2)OC(=O)N1Cc1nc(N2CC(F)(F)C2)ncc1-c1cc([C@H]2CC[C@H](C(=O)O)CC2)ccc1Cl` [Example 177], the IC50 worked out at 19 nM.

Take `COc1ccc(CCc2nc[nH]n2)cc1-c1ccc(N2CCC2)nc1CN1C(=O)O[C@H](c2cc(C(F)(F)F)cc(C(F)(F)F)c2)[C@@H]1C` [Example 270, (4S,5R)-3-[(6-azetidin-1-yl-3-{2-methoxy-5-[2-(1H-1,2,4-triazol-3-yl)ethyl]phenyl}pyridin-2-yl)methyl]-5-[3,5-bis(trifluoromethyl)phenyl]-4-methyl-1,3-oxazolidin-2-one]: the IC50 was 7 nM.

Turning to `COc1ccc(-c2ccc(O)c(C(C)=O)c2)cc1-c1ccc(N2CCC2)nc1CN1C(=O)O[C@H](c2cc(C(F)(F)F)cc(C(F)(F)F)c2)[C@@H]1C` [Example 257, (4S,5R)-3-{[3-(3′-acetyl-4′-hydroxy-4-methoxybiphenyl-3-yl)-6-azetidin-1-ylpyridin-2-yl]methyl}-5-[3,5-bis(trifluoromethyl)phenyl]-4-methyl-1,3-oxazolidin-2-one], the half-inhibitory concentration (IC50) amounted to 90 nM.

For `COc1ccc([C@@H]2CC[C@@H](C(=O)O)C2)cc1-c1ccc(N2CCC2)nc1CN1C(=O)O[C@H](c2cc(C(F)(F)F)cc(C(F)(F)F)c2)[C@@H]1C` (single isomer, unassigned) [Example 238], the IC50 turned out to be 5 nM.

`CCOC(=O)[C@H]1C[C@@H]1c1ccc(OC)c(-c2ccc(N3CCC3)nc2CN2C(=O)O[C@H](c3cc(C(F)(F)F)cc(C(F)(F)F)c3)[C@@H]2C)c1` [Example 4]: the IC50 stood at 6 nM.

`COC(=O)CCc1ccc(OC)c(-c2cnc(N3CC(F)(F)C3)nc2CN2C(=O)O[C@H](c3cc(C(F)(F)F)cc(C(F)(F)F)c3)[C@@H]2C)c1` [Example 144]: the IC50 is 17 nM.

Turning to `COc1ccc(Cl)cc1-c1ccc(N2CCC2)nc1CN1C(=O)O[C@H](c2cc(C(F)(F)F)cc(C(F)(F)F)c2)[C@@H]1C` [Example 27, (4S,5R)-3-{[6-azetidin-1-yl-3-(5-chloro-2-methoxyphenyl)pyridin-2-yl]methyl}-5-[3,5-bis(trifluoromethyl)phenyl]-4-methyl-1,3-oxazolidin-2-one], the IC50 is 3 nM.

With `COc1ccc([C@H]2C[C@@H]2C(=O)O)cc1-c1ccc(N2CCC2)nc1CN1C(=O)O[C@H](c2cc(F)cc(F)c2)[C@@H]1C` [Example 84], the IC50 came to 73 nM.

Take `COc1ccc([C@H]2CC[C@H](C(N)=O)CC2)cc1-c1ccc(N2CCC2)nc1CN1C(=O)O[C@H](c2cc(C)cc(C)c2)[C@@H]1C` [Example 253, trans-4-[3-(6-azetidin-1-yl-2-{[(4S,5R)-5-(3,5-dimethylphenyl)-4-methyl-2-oxo-1,3-oxazolidin-3-yl]methyl}pyridin-3-yl)-4-methoxyphenyl]cyclohexanecarboxamide]: the IC50 was 23 nM.

With `COC(=O)Cc1ccc(OC)c(-c2c(C)cc(N3CCC3)nc2CN2C(=O)O[C@H](c3cc(C(F)(F)F)cc(C(F)(F)F)c3)[C@@H]2C)c1` [Example 40], the IC50 was 3 nM.

Take `CCOC(=O)C[C@@H]1CCc2cc(OC)c(-c3ccc(N4CCC4)nc3CN3C(=O)O[C@H](c4cccc(C(F)(F)F)c4)[C@@H]3C)cc21` [Example 204]: the IC50 is 114 nM.

Turning to `COc1ccc([C@@H]2CC[C@H](C(=O)O)C2)cc1-c1ccc(N2CCC2)nc1CN1C(=O)O[C@H](c2cc(C(F)(F)F)cc(C(F)(F)F)c2)[C@@H]1C` (single isomer, unassigned) [Example 246], the IC50 was 12 nM.

For `CCOC(=O)[C@@H]1C[C@H]1c1ccc(OC)c(-c2ccc(N3CCC3)nc2CN2C(=O)O[C@H](c3cc(C)cc(C)c3)[C@@H]2C)c1` [Example 208], the IC50 was determined as 25 nM.

With `C[C@H]1[C@@H](c2cc(C(F)(F)F)cc(C(F)(F)F)c2)OC(=O)N1Cc1nc(N2CCC2)ncc1-c1cc(CCC(=O)O)ccc1Cl` [Example 280], the IC50 is 23 nM.

`C[C@H]1[C@@H](c2cc(C(F)(F)F)cc(C(F)(F)F)c2)OC(=O)N1Cc1nc(N2CCC2)ncc1-c1cc([C@H]2CC[C@H](C(=O)O)CC2)ccc1Cl` [Example 173]: the IC50 turned out to be 21 nM.

Consider `COc1ccc([C@@H]2C[C@H]2C(=O)O)cc1-c1ccc(N2CCC2)nc1CN1C(=O)O[C@H](c2cc(F)cc(F)c2)[C@@H]1C` [Example 83], for which the IC50 turned out to be 134 nM.

Turning to `COc1ccc(-c2ccc(C(=O)O)cn2)cc1-c1ccc(N2CCC2)nc1CN1C(=O)O[C@H](c2cc(C(F)(F)F)cc(C(F)(F)F)c2)[C@@H]1C` [Example 121], the 50% inhibitory concentration (IC50) was 28 nM.

Turning to `CCOC(=O)[C@@H]1CC1c1ccc(OC)c(-c2cnc(N3CC(F)(F)C3)nc2CN2C(=O)O[C@H](c3cc(C(F)(F)F)cc(C(F)(F)F)c3)[C@@H]2C)c1` (stereo partly drawn) [Example 129], the IC50 is 18 nM.

In the case of `COc1ccc(-c2ccc(C(=O)O)s2)cc1-c1ccc(N2CCC2)nc1CN1C(=O)O[C@H](c2cc(C(F)(F)F)cc(C(F)(F)F)c2)[C@@H]1C` [Example 105], the IC50 came out at 51 nM.

Turning to `COc1ccc(CCC(=O)O)cc1-c1ccc(N2CCCCC2)nc1CN1C(=O)O[C@H](c2cc(C(F)(F)F)cc(C(F)(F)F)c2)[C@@H]1C` [Example 271, 3-{3-[2-({(4S,5R)-5-[3,5-bis(trifluoromethyl)phenyl]-4-methyl-2-oxo-1,3-oxazolidin-3-yl}methyl)-6-piperidin-1-ylpyridin-3-yl]-4-methoxyphenyl}propanoic acid], the IC50 stood at 96 nM.

As for `COC(=O)c1ccc(-c2ccc(OC)c(-c3ccc(N4CCC4)nc3CN3C(=O)O[C@H](c4cc(C)cc(C)c4)[C@@H]3C)c2)c(C)c1` [Example 211], the IC50 stood at 23 nM.

With `COc1ccc([C@@H]2C[C@H]2C(N)=O)cc1-c1ccc(N2CCC2)nc1CN1C(=O)O[C@H](c2cc(C)cc(C)c2)[C@@H]1C` [Example 250], the IC50 was determined as 54 nM.

Take `COc1ccc(-c2nc(C)c(C(=O)O)s2)cc1-c1ccc(N2CCC2)nc1CN1C(=O)O[C@H](c2cc(C(F)(F)F)cc(C(F)(F)F)c2)[C@@H]1C` [Example 116]: the IC50 was 77 nM.

Consider `COC(=O)c1ccc(-c2ccc(OC)c(-c3cnc(N4CC(OC)C4)nc3CN3C(=O)O[C@H](c4cc(C(F)(F)F)cc(C(F)(F)F)c4)[C@@H]3C)c2)c(C)c1` [Example 135], for which the IC50 turned out to be 89 nM.

In the case of `COC(=O)c1ccc(-c2ccc(OC)c(-c3ccc(N4CCC4)nc3CN3C(=O)O[C@H](c4cccc(C(F)(F)F)c4)[C@@H]3C)c2)c(C)c1` [Example 210], the IC50 was 22 nM.

As for `COc1ccc(-c2ccc(C(=O)O)nc2)cc1-c1ccc(N2CCC2)nc1CN1C(=O)O[C@H](c2cc(C(F)(F)F)cc(C(F)(F)F)c2)[C@@H]1C` [Example 120], the IC50 stood at 33 nM.
